Source: patent US11045452B2, “Composition for preventing or treating cancer comprising a vascular disrupting agent and immune checkpoint inhibitor” (CHONG KUN DANG PHARMACEUTICAL CORP., priority 2017, dated 2021)

Legend:
[1] = system: mouse bone marrow-derived dendritic cells (BM-DC); experiment: Measurement of phagocytosis of dendritic cells (FITC OVA-microsphere, flow cytometer); format: cell-based; settings: 100 nM, 18 hours, then FITC OVA-microsphere 2 hours, FIG. 5
Method: (§1) Mouse bone marrow-derived dendritic cells (BM-DC) were obtained from a femur of BALB/c or C57BL/6 mouse. The cells were kept with Dulbecco's modified Eagle medium (DMEM) containing 40 ng/mL of rmGM-CSF (JW Creagene, Sungnam, Korea) and 20 ng/mL of rmIL-4 (JW CreaGene), and containing 10% heat-inactivated FBS (Hyclone), 100 U/ml of penicillin, 100 μg/ml of streptomycin (Hyclone) and 50 μM of 2-mercaptoethanol (Sigma-Aldrich, Inc., St. Louis, Mo., USA).
(§2) A compound of a Formula 2 (Compound 2), which was an active metabolite of the compound of the Formula 1, was dissolved in DMSO, and diluted with a medium of the mouse bone marrow-derived dendritic cells so as to prepare active compound.
To identify phagocytosis of dendritic cells, the mouse bone marrow-derived dendritic cells (2×10^6/well) were treated with 100 nM of the compound of the Formula 2 for 18 hours, and then added with OVA-microsphere containing ovalbumin tagged with fluorescein isothiocyanate (FITC), so as to be cultured for 2 hours. Completely cultured cells were washed with PBS, and then the cells were collected, fixed with paraformaldehyde, and analyzed with a flow cytometer.
(§3) A statistical significance between a control group and a treated group was verified by using student t-test.

[2] = system: mouse bone marrow-derived dendritic cells (BM-DC); experiment: Identification of phenotype of dendritic cells (flow cytometry of cell surface markers); format: cell-based; settings: 24 hours
Method: as §1, §2
To identify a phenotype of dendritic cells, the mouse bone marrow-derived dendritic cells were treated with the compound of the Formula 2 for 24 hours, and then were dyed with an antibody (antibody to anti-mouse CD80, anti-mouse CD86 or anti-mouse MHC II) to a cell surface marker of the mouse bone marrow-derived dendritic cells as well as an isotype control antibody. Flow cytometry was performed by using FACS Canto II flow cytometer (Becton Dickinson).
as §3

[3] = system: mouse bone marrow-derived dendritic cells (BM-DC); experiment: Measurement of cytokines produced by dendritic cells (immunoassay kit); format: cell-based; settings: 24 hours, cell culture medium, all groups administered, FIG. 4
Method: as §1, §2
To identify a change in secretion of cytokines, the mouse bone marrow-derived dendritic cells were treated with the compound of the Formula 2 for 24 hours, and then the cytokines were measured by using a cell culture medium. An immunoassay kit (R&D system) was used for measuring cytokines, and thus IL-1β, IL-6 and IL-12 were measured.
as §3

[4] = system: MC38, a mouse colorectal cancer cell line; experiment: MC38 cancer animal model, Formula 1 with anti-PD-L1 antibody (Example 3); format: in vivo, C57BL/6 mouse; settings: FIG. 7
Method: (§4) MC38 (8×10^4 cell), a mouse colorectal cancer cell line, was subcutaneously transplanted to a C57BL/6 mouse. When a size of cancer reaches 40-60 mm^3, a vehicle or 5 mg/kg of the compound of the Formula 1 was intraperitoneally injected into the mouse twice a week. Also, 1 ug/uL (200 ug/200 uL/mouse) of an anti-PD-L1 antibody was intraperitoneally injected into the mouse twice a week, in one day after administering a vehicle or the compound of the Formula 1. A size of cancer and a weight were measured twice a week.

[5] = system: MC38, a mouse colorectal cancer cell line; experiment: MC38 cancer animal model, Formula 1 with anti-PD-1 / anti-CTLA-4 antibody (Example 2); format: in vivo, C57BL/6 mouse
Method: as §4, with “anti-PD-1 antibody, an anti-CTLA-4” for “anti-PD-L1”, “antibody or both thereof (purchased from BioXCell)” for “antibody”

SMILES | phagocytosis of dendritic cells (fluorescence intensity) [1] | MHC II (phenotype of mature dendritic cells) expression ([2]; 100 nM, FIG. 3) | CD80 (mature dendritic cell marker) expression ([2]; 0.01, 0.1 and 1 μM, FIG. 1) | CD86 (mature dendritic cell marker) expression ([2]; 0.01, 0.1 and 1 μM, FIG. 2) | IL-1β secretion [3] | IL-6 secretion [3] | IL-12 secretion [3] | therapeutic potential in combination with the anti-PD-L1 antibody ([4]; Formula 1 5 mg/kg i.p. + anti-PD-L1 antibody 200 ug/mouse i.p., twice a week) | growth of cancer ([4]; single administration, Formula 1 5 mg/kg i.p. twice a week, antibody 200 ug/mouse i.p. twice a week) | therapeutic potential in combination with the anti-CTLA-4 antibody ([5]; Formula 1 5 mg/kg i.p. + anti-CTLA-4 antibody 200 ug/mouse i.p., twice a week, FIG. 6) | therapeutic potential in combination with the anti-PD-1 antibody ([5]; Formula 1 5 mg/kg i.p. + anti-PD-1 antibody 200 ug/mouse i.p., twice a week, FIG. 6) | experimental animals in which cancer was completely eradicated ([5]; Formula 1 5 mg/kg i.p. + anti-PD-1 antibody and anti-CTLA-4 antibody, twice a week) | anti-cancer effect in combination with the anti-PD-1 antibody and the anti-CTLA-4 antibody ([5]; Formula 1 5 mg/kg i.p. + both antibodies i.p., twice a week, FIG. 6) | growth of cancer ([5]; single administration, Formula 1 5 mg/kg i.p. twice a week, antibody 200 ug/mouse i.p. twice a week, FIG. 6)
COc1cc(C(=O)c2ccc(-c3csc(N)n3)cc2-n2cncn2)cc(OC)c1OC [Formula 2, (4-(2-aminothiazole-4-yl)-2-(1H-1,2,4-triazole-1-yl)phenyl)(3,4,5-trimethoxyphenyl)methanone] | increased | increased | increased | increased | increased | increased | increased | – | – | – | – | – | – | –
COc1cc(C(=O)c2ccc(-c3csc(NC(=O)[C@@H](N)C(C)C)n3)cc2-n2cncn2)cc(OC)c1OC [Formula 1, (S)—N-(4-(3-(1H-1,2,4-triazole-1-yl)-4-(3,4,5-trimethoxybenzoyl)phenyl)thiazole-2-yl)-2-amino-3-methylbutanamide] | – | – | – | – | – | – | – | very high therapeutic potential with a synergy effect | remarkably inhibited | very high therapeutic potential with a synergy effect | very high therapeutic potential with a synergy effect | two of ten | most increased | remarkably inhibited
